Test results taken from US9403756B2, “N-phenyl anthranilic acid derivatives and uses thereof” (Ramot at Tel-Aviv University Ltd., priority 2007, dated 2016).
“Also recorded” adds a separate entry of the source.

Key:
DRG neurons [1] = assay: Current-clamp recordings in cultured DRG neurons; format: cell-based, rat; settings: 1 μM NH17; about 10-20 pA for 400 ms; control 1±0; n=5
DRG neurons [2] = assay: Current-clamp recordings in cultured DRG neurons; format: cell-based, rat
Method: For dorsal root ganglion (DRG) neuronal cultures, ganglia were dissected from 2-5 day-old Sprague-Dawley rats killed by decapitation. DRGs were placed in Hank's balanced saline solution (HBSS) and prepared by enzymatic dissociation. Briefly, after 30 minutes incubation in 5 mg/ml dispase, 2 mg/ml collagenase type 1A and 0.1 mg/ml DNase (Invitrogen/Gibco, Carlsbad, Calif.) in Ca^2+ and Mg^2+-free HBSS, the ganglia were mechanically triturated with a fire-polished glass Pasteur pipette. The ganglia were then centrifuged for 5 minutes at 80×g and resuspended in DMEM supplemented with 2 mM L-glutamine, 16.5 mM NaHCO3, 6 g/l glucose, 5 ml penicillin/streptomycin and 10% fetal calf serum.
For electrophysiological recording, dissociated neurons were plated on 13 mm glass coverslips, previously coated with poly-D-lysine (1 mg/ml) and laminin (10 μg/ml) and used at 1-2 days in culture.
For current-clamp recordings in primary cultured neurons, the patch pipettes were filled with (in mM): 135 KCl, 1 K2ATP, 1 MgATP, 2 EGTA, 1.1 CaCl2, 5 glucose, 10 HEPES, adjusted with KOH at pH 7.4 (315 mOsm). The external solution contained (in mM): 150 NaCl, 2.5 KCl, 2 CaCl2, 2 MgCl2, 15 glucose, 10 HEPES, adjusted with NaOH at pH 7.4 (325 mOsm). Recordings were sampled at 5 kHz and filtered at 2 KHz via a 4-pole Bessel low pass filter. A liquid junction potential of about −15.6 mV was measured between the intracellular and saline solutions and corrected on-line.
For evoking spike discharges, 75-200 pA square depolarizing current pulses were injected into neurons for 400 ms. For rheobase current measurements, 100-1100 pA square depolarizing current pulses were injected into neurons for 2 ms.

Kv7.2/3 channels = target: T1, Kv7.2/3 channels (Homo sapiens, UniProt O43525+O43526); assay: Kv7.2/3 channels coexpressed in CHO cells, whole-cell patch-clamp; format: cell-based
T1 construct: expressed in transfected cells; host or cells: CHO cells
Method: Chinese hamster ovary (CHO) cells were grown in Dulbecco's modified Eagle's medium (DMEM) supplemented with 2 mM glutamine, 10% fetal calf serum and antibiotics. Briefly, 40,000 cells seeded on poly-D-lysine-coated glass coverslips (13 mm diameter) in a 24-multiwell plate were transfected with pIRES-CD8 (0.5 μg) as a marker for transfection, and with Kv7.2 (0.5 μg) and Kv7.3 (0.5 μg) or TRPV1 […] or TRPV6 […].
For electrophysiology, transfected cells were visualized approximately 40 hours following transfection, using anti-CD8 antibody-coated beads. Transfection was performed using Fugene 6 (Roche, Indianapolis Ind., USA) according to the manufacturer's protocol.
Voltage-clamp recordings in CHO cells were performed, using the whole-cell configuration of the patch-clamp technique. Signals were amplified using an Axopatch 200B patch-clamp amplifier (Molecular Devices, Sunnyvale, Calif.), sampled at 2 kHz and filtered at 800 Hz via a 4-pole Bessel low pass filter. […] The patch pipettes were pulled from borosilicate glass (Warner Instrument Corp, USA) with a resistance of 2-5 MΩ. For K^+ current recordings in CHO cells, the intracellular pipette solution contained (in mM): 130 KCl, 1 MgCl2, 5 K2ATP, 5 EGTA, 10 HEPES, adjusted with KOH to pH 7.4 (290 mOsm). The extracellular solution contained (in mM): 140 NaCl, 4 KCl, 1.8 CaCl2, 1.2 MgCl2, 11 glucose, 5.5 HEPES, adjusted with NaOH to pH 7.4 (310 mOsm).
Data analysis was performed using the Clampfit program (pClamp 9.2, Molecular Devices), Microsoft Excel (Microsoft) and Prism 4.0 (GraphPad). Chord conductance (G) was calculated by using the following equation: G=I/(V−Vrev) where I corresponds to the current amplitude measured at the end of the pulse and Vrev, the calculated reversal potential. G was estimated at various test voltages V and then, normalized to a maximal conductance value, Gmax. Activation curves were fitted by one Boltzmann distribution: G/Gmax=1/{1+exp[(V50−V)/s]} where V50 is the voltage at which the current is half-activated and s is the slope factor. All data were expressed as mean±SEM. Statistically significant differences were assessed by Student's t-test. Analysis of sEPSCs and sIPSCs was done using the Clampfit program (pClamp 9.2, Molecular Devices) and included evaluation of the individual events as well as the average event amplitude and the integral of the event (total charge transfer).
In these studies, the impact of the compounds on M-channel activity was measured by the heterologous coexpression of Kv7.2 and Kv7.3 subunits in CHO cells.

KCNQ2 mutant W236L = target: T2, KCNQ2 mutant W236L (Homo sapiens, UniProt O43526, W236L); assay: KCNQ2 mutant W236L in CHO cells; format: cell-based; settings: 10 μM retigabine; 10 μM or 25 μM NH29
T2 construct: expressed in transfected cells; host or cells: CHO cells
T2 sequence (O43526 whole entry W236L): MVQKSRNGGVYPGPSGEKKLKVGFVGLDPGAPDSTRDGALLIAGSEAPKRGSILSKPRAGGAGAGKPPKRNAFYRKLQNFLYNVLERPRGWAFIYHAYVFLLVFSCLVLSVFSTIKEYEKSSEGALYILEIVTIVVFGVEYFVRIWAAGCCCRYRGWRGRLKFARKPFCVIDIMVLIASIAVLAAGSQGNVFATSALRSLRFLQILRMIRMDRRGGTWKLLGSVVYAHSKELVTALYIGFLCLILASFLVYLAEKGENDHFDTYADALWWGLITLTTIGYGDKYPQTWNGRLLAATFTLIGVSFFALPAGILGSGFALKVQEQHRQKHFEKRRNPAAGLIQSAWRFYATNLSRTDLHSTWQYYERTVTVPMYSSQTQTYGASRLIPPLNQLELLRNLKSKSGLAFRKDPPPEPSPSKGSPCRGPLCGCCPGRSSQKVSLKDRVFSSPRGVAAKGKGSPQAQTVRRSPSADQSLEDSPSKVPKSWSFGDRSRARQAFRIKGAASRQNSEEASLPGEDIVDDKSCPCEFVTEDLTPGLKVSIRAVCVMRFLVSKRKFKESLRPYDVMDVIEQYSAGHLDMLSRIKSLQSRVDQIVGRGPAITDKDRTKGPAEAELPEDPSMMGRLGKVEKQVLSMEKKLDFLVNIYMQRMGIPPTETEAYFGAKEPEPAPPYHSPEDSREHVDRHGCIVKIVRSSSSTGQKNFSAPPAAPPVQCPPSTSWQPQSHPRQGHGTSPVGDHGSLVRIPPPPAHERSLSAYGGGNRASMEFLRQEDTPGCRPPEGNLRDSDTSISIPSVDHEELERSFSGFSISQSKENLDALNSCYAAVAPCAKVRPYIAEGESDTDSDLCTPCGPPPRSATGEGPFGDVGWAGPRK
Method: FIGS. 11A-F present the potentiating effect of NH29, an exemplary channel opener compound according to embodiments of the present invention, and Retigabine, on KCNQ2 mutants R207W and W236L mutant. Shown are representative traces recorded from CHO cell transfected with the KCNQ2 mutant R207W 0, 1 and 4-4.5 minutes after external application of 25 μM of NH29 and wherein the membrane potential was stepped from −90 mV holding potential to −20 mV for 1.5 seconds pulse duration (FIG. 11A), or 0, 1 and 4 minutes after external application of 25 μM of Retigabine wherein the membrane potential was stepped from −90 mV holding potential to −40 mV for 1.5 seconds pulse duration (FIG. 11B). FIGS. 11C and 11D show representative traces recorded from CHO cells transfected with the KCNQ2 mutant W236L 0, 1 and 6 minutes after external application of 25 μM of NH29 (FIG. 11C) or 0 and 5 minutes after external application of 10 μM of Retigabine (FIG. 11D) and wherein the membrane potential was stepped from −90 mV holding potential to −40 mV for 1.5 seconds pulse duration. […]
Voltage-clamp recordings in CHO cells were performed, using the whole-cell configuration of the patch-clamp technique. […] Series resistances (3-13 MΩ) were compensated (75-90%) and periodically monitored.

KCNQ2 mutant R198A = target: T3, KCNQ2 mutant R198A (Homo sapiens, UniProt O43526, R198A); assay: KCNQ2 S4 mutant R198A; format: cell-based; settings: RTG
T3 construct: expressed in transfected cells
T3 sequence (O43526 whole entry R198A): as the sequence (O43526 whole entry W236L) above, with R198A, L236W counted along it
From the text: (§1) FIGS. 12A-F present the potentiating effect of NH29, an exemplary channel opener compound according to embodiments of the present invention, on selected KCNQ2 mutants. Shown are bar diagrams comparing the potentiating effect of NH29 on native KCNQ2 and KCNQ2 mutants, wherein the mutated amino acids are located at the S1-S2 helix region (FIG. 12A) or S4 helix region (FIG. 12D) and wherein the opener effect is expressed as percent of the control current in the absence of the opener. For comparison, marked as a green line, is the observed current increase of native KCNQ2 by NH29. FIGS. 12B 12C, 12E and 12F present representative traces recorded from CHO cell transfected with the KCNQ2 mutant S122A, S121A, L206C and R201A respectively, before and after external application of 25 μM of NH29 and wherein the membrane potential was stepped from −90 mV holding potential to −40 mV for 1.5 seconds pulse duration.
(§2) Voltage-clamp recordings in CHO cells were performed, using the whole-cell configuration of the patch-clamp technique. Signals were amplified using an Axopatch 200B patch-clamp amplifier (Molecular Devices, Sunnyvale, Calif.), sampled at 2 kHz and filtered at 800 Hz via a 4-pole Bessel low pass filter. […] Series resistances (3-13 MΩ) were compensated (75-90%) and periodically monitored.

KCNQ2 mutant R207W = target: T4, KCNQ2 mutant R207W (Homo sapiens, UniProt O43526, R207W); format: cell-based; settings: RTG (25 μM, −40 mV, FIG. 11B)
T4 construct: expressed in transfected cells; host or cells: CHO cells
T4 sequence (O43526 whole entry R207W): as the sequence (O43526 whole entry W236L) above, with R207W, L236W counted along it
From the text: FIGS. 10A-D present the potentiating effect of NH29, an exemplary channel opener compound according to embodiments of the present invention, on wild type KCNQ2 (FIGS. 10A and 10B) and R207W mutant (FIGS. 10C and 10D) channels, as expressed in activation curve measurements, showing that NH29 left-shifts the activation curve (ΔV50) by −15.5 mV and −5.5 mV in the case of the wild-type and the mutant, respectively, and showing that NH29 enhances the current of wild-type and the mutant by about 3.4-fold (at −40 mV) and 1.5-fold (at −20 mV), respectively.
FIGS. 11A-F present the potentiating effect of NH29, an exemplary channel opener compound according to embodiments of the present invention, and Retigabine, on KCNQ2 mutants R207W and W236L mutant. Shown are representative traces recorded from CHO cell transfected with the KCNQ2 mutant R207W 0, 1 and 4-4.5 minutes after external application of 25 μM of NH29 and wherein the membrane potential was stepped from −90 mV holding potential to −20 mV for 1.5 seconds pulse duration (FIG. 11A), or 0, 1 and 4 minutes after external application of 25 μM of Retigabine wherein the membrane potential was stepped from −90 mV holding potential to −40 mV for 1.5 seconds pulse duration (FIG. 11B). FIGS. 11C and 11D show representative traces recorded from CHO cells transfected with the KCNQ2 mutant W236L 0, 1 and 6 minutes after external application of 25 μM of NH29 (FIG. 11C) or 0 and 5 minutes after external application of 10 μM of Retigabine (FIG. 11D) and wherein the membrane potential was stepped from −90 mV holding potential to −40 mV for 1.5 seconds pulse duration. FIG. 11E presents superimposed traces, showing the effects of Retigabine (RTG) and NH29 on the channel activity of KCNQ2 mutant W236L as measured at −40 mV; and FIG. 11F presents a bar diagram comparing the potentiating effect of NH29 and Retigabine on native KCNQ2 and KCNQ2 mutants, wherein the opener effect is expressed as percent of the control current in the absence of the opener.
Voltage-clamp recordings in CHO cells were performed, using the whole-cell configuration of the patch-clamp technique. Signals were amplified using an Axopatch 200B patch-clamp amplifier (Molecular Devices, Sunnyvale, Calif.), sampled at 2 kHz and filtered at 800 Hz via a 4-pole Bessel low pass filter. Data were acquired using pClamp 9.2 software (Molecular Devices) and an IBM compatible Pentium IV computer in conjunction with a DigiData 1322A interface (Molecular Devices). The patch pipettes were pulled from borosilicate glass (Warner Instrument Corp, USA) with a resistance of 2-5 MΩ. For K^+ current recordings in CHO cells, the intracellular pipette solution contained (in mM): 130 KCl, 1 MgCl2, 5 K2ATP, 5 EGTA, 10 HEPES, adjusted with KOH to pH 7.4 (290 mOsm). The extracellular solution contained (in mM): 140 NaCl, 4 KCl, 1.8 CaCl2, 1.2 MgCl2, 11 glucose, 5.5 HEPES, adjusted with NaOH to pH 7.4 (310 mOsm). Series resistances (3-13 MΩ) were compensated (75-90%) and periodically monitored.

KCNQ2 mutant S121A = target: T5, KCNQ2 mutant S121A (Homo sapiens, UniProt O43526, S121A); assay: KCNQ2 S1-S2 mutant S121A in CHO cells; format: cell-based; settings: RTG
T5 construct: expressed in transfected cells; host or cells: CHO cells
T5 sequence (O43526 whole entry S121A): as the sequence (O43526 whole entry W236L) above, with S121A, L236W counted along it
From the text: as §1, §2

Compound | number of evoked spikes (DRG neurons [1]) | decrease in rheobase current (DRG neurons [2]; 1 μM NH17) | depolarization of DRG membrane potential (ΔV) (DRG neurons [2]; 1 μM NH17, within 2 minutes) | rheobase current to generate a single spike (DRG neurons [2]; 1 μM NH17, 2 ms injection, control 650±71 pA, n=6) [pA] | inhibition at 25 µM (Kv7.2/3 channels; CHO, 25 μM, membrane potentials from −60 to +50 mV, read-out: inhibition of the Kv7.2/3 current) [%] | Activity (Kv7.2/3 channels; M-channel modulation, Kv7.2 and Kv7.3 subunits coexpressed in CHO cells) | EC50 (Kv7.2/3 channels; compounds whose Activity is Blocker, read-out: EC50) [µM] | IC50 (Kv7.2/3 channels; recombinant Kv7.2/3 in CHO cells, read-out: IC50, blockade of the K+ currents) [µM] | effect of point mutation W236L on the opener effect (KCNQ2 mutant W236L) | fold increase of current amplitude (KCNQ2 mutant R198A) [fold] | fold increase of current amplitude (KCNQ2 mutant R207W) | fold increase of current (KCNQ2 mutant S121A)
Cl.NCCOCCOC(=O)Cc1ccccc1Nc1c(Cl)cccc1Cl [NH17] | 12±2 | about 300 pA | +7±1 mV | 347±44 | > 90 | potent M-channel blockers; also recorded: Blocker | 11 | 11 |  |  |  | 
CCOC(=O)Nc1ccc(NCc2ccc(F)cc2)cc1N [retigabine, N-(2-amino-4-(4-fluorobenzylamino)-phenyl)carbamic acid ethyl ester, reference compound] |  |  |  |  |  |  |  |  | completely abolished the opener effect | 4.4 | more than 6 fold | more than 5 fold
